In PubChem BioAssay AID328 (DTP/NCI, 2004):
Values joined by “and” are separate entries in the source; they are usually repeats but may differ in a detail not shown here. Equal entries are not always repeated. Inconclusive results and toxic doses are left out.

Test system: BDF1 mice, P388 leukemia ip, median survival T/C
Experiment: NCI In Vivo Anticancer Drug Screen. Data for tumor model P388 Leukemia (intraperitoneal) in B6D2F1 (BDF1) mice
Settings: endpoint: median survival time, higher = longer survival
Outline: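 Each value expresses how treatment altered survival: treated-mouse outcome over vehicle-mouse outcome, both groups bearing the transplanted tumour.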

[1] = dose: 50.0 mg/kg/injection, schedule: Q01DX009 (ip), vehicle: saline with Tween-80
[2] = dose: 100.0 mg/kg/injection, schedule: Q01DX009 (ip), vehicle: saline with Tween-80
[3] = dose: 200.0 mg/kg/injection, schedule: Q01DX009 (ip), vehicle: saline with Tween-80
[4] = dose: 100.0 mg/kg/injection, schedule: Q01DX009 (ip), vehicle: Klucel (hydroxypropylcellulose) (HPC)
[5] = dose: 200.0 mg/kg/injection, schedule: Q01DX009 (ip), vehicle: Klucel (hydroxypropylcellulose) (HPC)
[6] = dose: 400.0 mg/kg/injection, schedule: Q01DX009 (ip), vehicle: Klucel (hydroxypropylcellulose) (HPC)
[7] = dose: 50.0 mg/kg/injection, schedule: Q01DX001 (ip), vehicle: Klucel (hydroxypropylcellulose) (HPC)
[8] = dose: 25.0 mg/kg/injection, schedule: Q01DX009 (ip), vehicle: saline
[9] = dose: 50.0 mg/kg/injection, schedule: Q01DX009 (ip), vehicle: saline
[10] = dose: 100.0 mg/kg/injection, schedule: Q01DX009 (ip), vehicle: saline
[11] = dose: 200.0 mg/kg/injection, schedule: Q01DX009 (ip), vehicle: saline
[12] = dose: 100.0 mg/kg/injection, schedule: Q04DX003 (ip), vehicle: Klucel (hydroxypropylcellulose) (HPC)
[13] = dose: 200.0 mg/kg/injection, schedule: Q04DX003 (ip), vehicle: Klucel (hydroxypropylcellulose) (HPC)
[14] = dose: 100.0 mg/kg/injection, schedule: Q04DX003 (ip), vehicle: saline with Tween-80
[15] = dose: 400.0 mg/kg/injection, schedule: Q04DX003 (ip), vehicle: saline with Tween-80
[16] = dose: 50.0 mg/kg/injection, schedule: Q04DX003 (ip), vehicle: water
[17] = dose: 100.0 mg/kg/injection, schedule: Q04DX003 (ip), vehicle: water
[18] = dose: 100.0 mg/kg/injection, schedule: Q04DX003 (ip), vehicle: saline
[19] = dose: 200.0 mg/kg/injection, schedule: Q04DX003 (ip), vehicle: saline
[20] = dose: 400.0 mg/kg/injection, schedule: Q04DX003 (ip), vehicle: saline
[21] = dose: 12.5 mg/kg/injection, schedule: Q01DX009 (ip), vehicle: saline with Tween-80
[22] = dose: 25.0 mg/kg/injection, schedule: Q01DX009 (ip), vehicle: saline with Tween-80

Structure (SMILES): C1CC2CCCC3CC(B4OCCO4)CC(C1)C23 (configuration not stated) (tested in a mixture with another compound)
- T/C (dose: 100.0 mg/kg/injection, schedule: Q04DX003 (ip), vehicle: other): 120 % of control
- T/C (dose: 200.0 mg/kg/injection, schedule: Q04DX003 (ip), vehicle: other): 100 % of control
- T/C (dose: 400.0 mg/kg/injection, schedule: Q04DX003 (ip), vehicle: other): 100 % of control

Structure (SMILES): c1cc2c3c(cccc3c1)N1C(=N2)Sc2nc3ccccc3nc21
- T/C [1]: 89 % of control
- T/C [2]: 89 % of control
- T/C [3]: 95 % of control

Structure (SMILES): CCOC(=O)c1cnc(SC)nc1NCc1ccccc1Cl
- T/C [4]: 100 % of control
- T/C [5]: 100 % of control
- T/C [6]: 100 % of control

Structure (SMILES): O=C1CSc2ccccc2N1
- T/C [7]: 109 % of control
- T/C (dose: 100.0 mg/kg/injection, schedule: Q01DX001 (ip), vehicle: Klucel (hydroxypropylcellulose) (HPC)): 100 % of control
- T/C (dose: 200.0 mg/kg/injection, schedule: Q01DX001 (ip), vehicle: Klucel (hydroxypropylcellulose) (HPC)): 116 % of control

Structure (SMILES): CCOC(=O)Oc1ccc(/C=N/NC(N)=S)nc1
- T/C [1]: 169 % of control
- T/C [2]: 178 % of control

Structure (SMILES): CC(=N\O)/C(C)=N/O.CC(=N\O)/C(C)=N/O.[Cl][Co][Cl]
- T/C (dose: 6.25 mg/kg/injection, schedule: Q01DX009 (ip), vehicle: saline): 90 % of control and 99 % of control
- T/C (dose: 12.5 mg/kg/injection, schedule: Q01DX009 (ip), vehicle: saline): 100 % of control
- T/C [8]: 99 % of control
- T/C [9]: 94 % of control and 110 % of control
- T/C [10]: 91 % of control and 110 % of control
- T/C [11]: 100 % of control

Structure (SMILES): O=P(O)(Oc1ccccc1)Oc1ccccc1.[Al]
- T/C [1]: 104 % of control
- T/C [2]: 95 % of control
- T/C [3]: 95 % of control

Structure (SMILES): CSc1nccc(=O)n1-c1cccc(C(F)(F)F)c1
- T/C [12]: 107 % of control
- T/C [13]: 107 % of control

Structure (SMILES): Brc1ccc(Oc2ccccc2)cc1
- T/C [14]: 122 % of control
- T/C (dose: 266.0 mg/kg/injection, schedule: Q04DX003 (ip), vehicle: saline with Tween-80): 100 % of control
- T/C [15]: 103 % of control
- T/C (dose: 600.0 mg/kg/injection, schedule: Q04DX003 (ip), vehicle: saline with Tween-80): 96 % of control

Structure (SMILES): Clc1ccc(-c2cc(=[N+]3CC[N+](=c4cc(-c5ccc(Cl)cc5)ss4)CC3)ss2)cc1
- T/C [16]: 109 % of control
- T/C (dose: 100.0 mg/kg/injection, schedule: Q01DX009 (ip), vehicle: water): 121 % of control
- T/C [17]: 116 % of control
- T/C (dose: 200.0 mg/kg/injection, schedule: Q01DX009 (ip), vehicle: water): 111 % of control
- T/C (dose: 200.0 mg/kg/injection, schedule: Q04DX003 (ip), vehicle: water): 109 % of control

Structure (SMILES): Cc1cc(=O)[nH]c(N/N=C/c2ccccc2O)n1
- T/C (dose: 200.0 mg/kg/injection, schedule: Q01DX010 (ip), vehicle: saline): 90 % of control
- T/C (dose: 300.0 mg/kg/injection, schedule: Q01DX010 (ip), vehicle: saline): 95 % of control
- T/C (dose: 400.0 mg/kg/injection, schedule: Q01DX010 (ip), vehicle: saline): 95 % of control
- T/C (dose: 500.0 mg/kg/injection, schedule: Q01DX010 (ip), vehicle: saline): 95 % of control

Structure (SMILES): CCOC(=O)Nc1cc2c(c(N)n1)N=C(CN(C)c1ccc(OC)cc1)CN2
- T/C (dose: 12.5 mg/kg/injection, schedule: Q01DX001 (ip), vehicle: Klucel (hydroxypropylcellulose) (HPC)): 175 % of control
- T/C (dose: 25.0 mg/kg/injection, schedule: Q01DX001 (ip), vehicle: Klucel (hydroxypropylcellulose) (HPC)): 240 % of control
- T/C [7]: 277 % of control

Structure (SMILES): Cn1c(N)nc2nc[nH]c2c1=S
- T/C (dose: 10.0 mg/kg/injection, schedule: Q01DX010 (ip), vehicle: saline): 91 % of control
- T/C (dose: 20.0 mg/kg/injection, schedule: Q01DX010 (ip), vehicle: saline): 91 % of control and 95 % of control
- T/C (dose: 40.0 mg/kg/injection, schedule: Q01DX010 (ip), vehicle: saline): 91 % of control and 100 % of control
- T/C (dose: 80.0 mg/kg/injection, schedule: Q01DX010 (ip), vehicle: saline): 91 % of control and 95 % of control

Structure (SMILES): Clc1ccccc1CSc1ncnc2nc[nH]c12
- T/C [4]: 90 % of control
- T/C [12]: 95 % of control
- T/C [5]: 90 % of control
- T/C [13]: 100 % of control
- T/C [6]: 104 % of control
- T/C (dose: 400.0 mg/kg/injection, schedule: Q04DX003 (ip), vehicle: Klucel (hydroxypropylcellulose) (HPC)): 100 % of control

Structure (SMILES): COc1cc2c(cc1OCc1ccccc1)C(C#N)N(C(=O)c1ccccc1)C=C2 (configuration not stated)
- T/C [8]: 109 % of control
- T/C (dose: 25.0 mg/kg/injection, schedule: Q04DX003 (ip), vehicle: saline): 97 % of control
- T/C [9]: 100 % of control
- T/C (dose: 50.0 mg/kg/injection, schedule: Q04DX003 (ip), vehicle: saline): 95 % of control
- T/C [10]: 97 % of control
- T/C [18]: 97 % of control
- T/C [11]: 98 % of control
- T/C [19]: 88 % of control
- T/C (dose: 400.0 mg/kg/injection, schedule: Q01DX009 (ip), vehicle: saline): 100 % of control
- T/C [20]: 94 % of control

Structure (SMILES): Cc1cc(-c2ccc(Br)cc2)[n+](C)n1C
- T/C [21]: 102 % of control
- T/C [22]: 107 % of control
- T/C [1]: 111 % of control

Structure (SMILES): O=C(O)COCC(F)(F)C(F)(F)C(F)(F)COCC(=O)O
- T/C [9]: 90 % of control
- T/C [10]: 110 % of control
- T/C [18]: 100 % of control
- T/C [11]: 110 % of control
- T/C [19]: 122 % of control

Structure (SMILES): OCC(O)C(O)C(O)C(O)c1nc2ccccc2[nH]1 (configuration not stated)
- T/C (dose: 50.0 mg/kg/injection, schedule: Q04DX003 (ip), vehicle: saline with Tween-80): 119 % of control
- T/C [14]: 97 % of control
- T/C (dose: 200.0 mg/kg/injection, schedule: Q04DX003 (ip), vehicle: saline with Tween-80): 95 % of control
- T/C [15]: 103 % of control

Structure (SMILES): CCOC(=O)/C(=C\c1ccccc1)O/C(=C/c1ccccc1)C(=O)OCC
- T/C (dose: 100.0 mg/kg/injection, schedule: Q04DX002 (ip), vehicle: saline with Tween-80): 89 % of control
- T/C (dose: 400.0 mg/kg/injection, schedule: Q04DX002 (ip), vehicle: saline with Tween-80): 93 % of control

Structure (SMILES): CCCCOB(OCCCC)Oc1c(C(C)(C)C)cccc1C(C)(C)C
- T/C [18]: 100 % of control
- T/C [19]: 112 % of control
- T/C [20]: 108 % of control

Structure (SMILES): Cc1ccc(N(N)c2ccc(C)cc2)cc1
- T/C (dose: 50.0 mg/kg/injection, schedule: Q01DX009 (ip), vehicle: Klucel (hydroxypropylcellulose) (HPC)): 100 % of control
- T/C (dose: 50.0 mg/kg/injection, schedule: Q04DX003 (ip), vehicle: Klucel (hydroxypropylcellulose) (HPC)): 107 % of control
- T/C [4]: 118 % of control
- T/C [12]: 107 % of control
- T/C [5]: 113 % of control
- T/C [13]: 100 % of control

Structure (SMILES): CC1(c2ccc(Cl)s2)C(=O)N(Cl)C(=O)N1Cl (configuration not stated)
- T/C (dose: 6.25 mg/kg/injection, schedule: Q01DX009 (ip), vehicle: saline with Tween-80): 112 % of control
- T/C [21]: 103 % of control and 106 % of control
- T/C [22]: 106 % of control and 110 % of control
- T/C (dose: 25.0 mg/kg/injection, schedule: Q04DX003 (ip), vehicle: water): 108 % of control
- T/C [1]: 104 % of control and 120 % of control (2×)
- T/C [16]: 95 % of control
- T/C [2]: 95 % of control and 115 % of control
- T/C [17]: 102 % of control
